For orientation: pIC50 means the IC50 on a negative log10 scale, so that one unit is a factor of ten. For orientation: pKd means −log10 of the Kd, conventionally taken in molar units.

pIC50, pKd: −log10 of the molar value.

Here are results for four compounds from ChEMBL document CHEMBL4334516, “Kinase Chemodiversity from the Arctic: The Breitfussins” (J Med Chem, 2019).

In data set [1] the test system is MRC5. Put plainly: Cytotoxicity in human MRC5 cells assessed as reduction in cell viability incubated for 72 hrs by MTS assay. The format is cell-based. As to conditions: MRC5, 72 h. (In general: Formazan colour is commonly taken as a measure of viable cells.)
Data set [2] has as its target Dual specificity tyrosine-phosphorylation-regulated kinase 1A (Homo sapiens, UniProt Q13627). Briefly: Inhibition of DYRK1A (unknown origin) by [33P]-ATP filter binding kinase assay.
The target in data set [3] is T1, Mitogen-activated protein kinase 15 (Homo sapiens, UniProt Q8TD08).
T1 sequence (Q8TD08 whole entry): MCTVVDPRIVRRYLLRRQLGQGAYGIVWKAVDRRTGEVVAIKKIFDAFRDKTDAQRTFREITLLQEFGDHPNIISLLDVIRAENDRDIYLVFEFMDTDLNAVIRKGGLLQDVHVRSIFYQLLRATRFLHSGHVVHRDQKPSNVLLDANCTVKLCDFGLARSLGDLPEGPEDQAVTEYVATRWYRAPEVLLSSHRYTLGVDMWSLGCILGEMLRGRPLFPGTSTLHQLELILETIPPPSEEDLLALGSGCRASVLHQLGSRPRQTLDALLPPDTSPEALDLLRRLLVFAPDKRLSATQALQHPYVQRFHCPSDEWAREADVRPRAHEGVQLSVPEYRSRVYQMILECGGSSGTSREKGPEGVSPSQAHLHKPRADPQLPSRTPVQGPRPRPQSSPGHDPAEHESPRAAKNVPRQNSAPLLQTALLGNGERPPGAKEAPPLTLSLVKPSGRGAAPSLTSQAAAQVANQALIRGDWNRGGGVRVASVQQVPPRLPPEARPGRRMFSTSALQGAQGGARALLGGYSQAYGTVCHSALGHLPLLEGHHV
Put plainly: Inhibition of ERK8 (unknown origin) by [33P]-ATP filter binding kinase assay.

Data set [4] has as its target T2, Serine/threonine-protein kinase pim-3 (Homo sapiens, UniProt Q86V86). Put plainly: Inhibition of PIM3 (unknown origin) by [33P]-ATP filter binding kinase assay.
Data set [5] addresses T3, Mitogen-activated protein kinase kinase kinase kinase 2 (Homo sapiens, UniProt Q12851).
T3 sequence (Q12851 whole entry): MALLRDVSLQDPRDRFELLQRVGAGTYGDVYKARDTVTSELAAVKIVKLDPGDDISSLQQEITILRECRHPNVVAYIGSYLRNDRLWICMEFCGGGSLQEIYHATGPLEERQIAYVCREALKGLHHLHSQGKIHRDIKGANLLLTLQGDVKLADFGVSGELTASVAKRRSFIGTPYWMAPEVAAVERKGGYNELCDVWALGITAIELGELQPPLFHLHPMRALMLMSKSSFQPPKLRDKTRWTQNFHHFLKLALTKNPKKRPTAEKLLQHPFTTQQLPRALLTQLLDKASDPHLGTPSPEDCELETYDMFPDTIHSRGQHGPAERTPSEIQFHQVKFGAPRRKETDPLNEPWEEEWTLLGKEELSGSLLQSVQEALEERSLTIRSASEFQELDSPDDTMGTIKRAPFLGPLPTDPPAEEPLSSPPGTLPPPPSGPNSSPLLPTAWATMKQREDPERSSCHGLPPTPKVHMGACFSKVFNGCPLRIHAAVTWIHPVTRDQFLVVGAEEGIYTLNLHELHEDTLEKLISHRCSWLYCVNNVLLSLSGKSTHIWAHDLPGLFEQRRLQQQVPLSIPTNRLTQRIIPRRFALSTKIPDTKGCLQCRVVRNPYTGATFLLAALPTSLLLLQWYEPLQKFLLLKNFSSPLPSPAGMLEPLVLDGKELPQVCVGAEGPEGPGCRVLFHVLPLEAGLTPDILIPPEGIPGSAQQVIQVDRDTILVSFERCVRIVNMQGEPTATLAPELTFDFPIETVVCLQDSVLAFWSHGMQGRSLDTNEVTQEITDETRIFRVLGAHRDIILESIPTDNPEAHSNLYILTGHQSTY
Briefly: Inhibition of GCK (unknown origin) by [33P]-ATP filter binding kinase assay.

For data set [6], the target named is T2, Serine/threonine-protein kinase pim-3. Briefly: Inhibition of PIM3 (unknown origin) assessed as residual enzyme activity at 1 uM by [33P]-ATP filter binding kinase assay relative to control.
The target in data set [7] is T4, Serine/threonine-protein kinase 17B (Homo sapiens, UniProt O94768).
T4 sequence (O94768 whole entry): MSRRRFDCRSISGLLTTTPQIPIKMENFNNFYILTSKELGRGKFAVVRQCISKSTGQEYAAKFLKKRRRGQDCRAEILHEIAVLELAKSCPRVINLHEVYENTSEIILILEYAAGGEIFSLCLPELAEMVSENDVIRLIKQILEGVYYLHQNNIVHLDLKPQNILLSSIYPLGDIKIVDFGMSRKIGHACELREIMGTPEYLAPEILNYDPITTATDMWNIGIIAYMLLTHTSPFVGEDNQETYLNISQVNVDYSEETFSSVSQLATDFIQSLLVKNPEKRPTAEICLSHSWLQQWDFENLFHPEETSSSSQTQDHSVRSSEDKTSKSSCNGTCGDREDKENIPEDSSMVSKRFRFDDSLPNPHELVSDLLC
Briefly: Inhibition of Alexa Fluor 647-labeled ATP competitive kinase tracer binding to GST-tagged DRAK2 (unknown origin) by FRET based cell free ATP-competitive tracer displacement assay.

For data set [8], the target named is T4, Serine/threonine-protein kinase 17B. Put plainly: Inhibition of DRAK2 (unknown origin) expressed in HEK293 cells by NanoLuc-luciferase reporter based intracellular ATP competitiveness assay. The format is cell-based.
The target in data set [9] is Aurora kinase B (Homo sapiens, UniProt Q96GD4). Briefly: Inhibition of Aurora B (unknown origin) assessed as residual enzyme activity at 50 uM by [33P]-ATP filter binding kinase assay relative to control.
Sequence of Aurora kinase B (Q96GD4 whole entry, the tested form may be a part): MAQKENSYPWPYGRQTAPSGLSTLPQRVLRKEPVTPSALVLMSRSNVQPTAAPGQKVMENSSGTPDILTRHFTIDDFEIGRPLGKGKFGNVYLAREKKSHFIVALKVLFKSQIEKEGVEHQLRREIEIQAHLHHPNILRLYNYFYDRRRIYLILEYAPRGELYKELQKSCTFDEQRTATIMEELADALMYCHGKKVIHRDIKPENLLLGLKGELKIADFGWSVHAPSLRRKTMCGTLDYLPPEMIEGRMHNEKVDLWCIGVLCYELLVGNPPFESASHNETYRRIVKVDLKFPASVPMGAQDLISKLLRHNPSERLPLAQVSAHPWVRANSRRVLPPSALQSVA
The target of data set [10] is Mitogen-activated protein kinase 15 (Homo sapiens) (UniProt Q8TD08). Briefly: Binding affinity to wild-type human partial length ERK8 (M1 to P437 residues) expressed in bacterial expression system assessed as residual binding level at 10 uM by active-site directed competition binding assay based Kinomescan method relative to control.
Data set [11] concerns the target BMP-2-inducible protein kinase (Homo sapiens, UniProt Q9NSY1). Put plainly: Binding affinity to wild-type human partial length BIKE (S34 to N329 residues) expressed in bacterial expression system by active-site directed competition binding assay based Kinomescan method.
Data set [12] concerns the target Interleukin-1 receptor-associated kinase 3 (Homo sapiens, UniProt Q9Y616). Put plainly: Binding affinity to wild-type human partial length IRAK3 (V147 to E596 residues) expressed in bacterial expression system by active-site directed competition binding assay based Kinomescan method.
The test system of data set [13] is MDA-MB-231. Put plainly: Cytotoxicity in human MDA-MB-231 cells assessed as reduction in cell viability incubated for 72 hrs by SRB assay. Conditions: MDA-MB-231, 72 h. Background: In SRB staining, fixed cells bind dye roughly in proportion to their protein.
Data set [14] deals with PBMC. Briefly: Cytotoxicity in human PBMC assessed as reduction in cell viability incubated for 72 hrs by SRB assay. The format is cell-based.
Data set [15] is described as follows: Toxicity in zebrafish embryos assessed as survival at 1396 uM after 72 hrs (reference value: 95%). Also noted: species or system Danio rerio. As to conditions: in vivo.
Data set [16] in a line: Toxicity in zebrafish embryos assessed as induction of scoliosis by measuring unaffected embryos level at 14 uM after 72 hrs (reference value: 100%). More on the design: species or system Danio rerio. As to conditions: in vivo.
A short description of data set [17]: Permeability assessed as drug flux at 500 uM incubated for 20 hrs by PAMPA. The format is ADME.
Data set [18] can be described thus: Unbound fraction in mouse plasma at 5 uM incubated for 6 hrs at 37 degC by LC-MS analysis based equilibrium dialysis. The format is ADME, cell-free. On the technique in general: In equilibrium dialysis free small molecules cross a membrane that holds back macromolecules.

Sequence of BMP-2-inducible protein kinase (Q9NSY1 whole entry, the tested form may be a part): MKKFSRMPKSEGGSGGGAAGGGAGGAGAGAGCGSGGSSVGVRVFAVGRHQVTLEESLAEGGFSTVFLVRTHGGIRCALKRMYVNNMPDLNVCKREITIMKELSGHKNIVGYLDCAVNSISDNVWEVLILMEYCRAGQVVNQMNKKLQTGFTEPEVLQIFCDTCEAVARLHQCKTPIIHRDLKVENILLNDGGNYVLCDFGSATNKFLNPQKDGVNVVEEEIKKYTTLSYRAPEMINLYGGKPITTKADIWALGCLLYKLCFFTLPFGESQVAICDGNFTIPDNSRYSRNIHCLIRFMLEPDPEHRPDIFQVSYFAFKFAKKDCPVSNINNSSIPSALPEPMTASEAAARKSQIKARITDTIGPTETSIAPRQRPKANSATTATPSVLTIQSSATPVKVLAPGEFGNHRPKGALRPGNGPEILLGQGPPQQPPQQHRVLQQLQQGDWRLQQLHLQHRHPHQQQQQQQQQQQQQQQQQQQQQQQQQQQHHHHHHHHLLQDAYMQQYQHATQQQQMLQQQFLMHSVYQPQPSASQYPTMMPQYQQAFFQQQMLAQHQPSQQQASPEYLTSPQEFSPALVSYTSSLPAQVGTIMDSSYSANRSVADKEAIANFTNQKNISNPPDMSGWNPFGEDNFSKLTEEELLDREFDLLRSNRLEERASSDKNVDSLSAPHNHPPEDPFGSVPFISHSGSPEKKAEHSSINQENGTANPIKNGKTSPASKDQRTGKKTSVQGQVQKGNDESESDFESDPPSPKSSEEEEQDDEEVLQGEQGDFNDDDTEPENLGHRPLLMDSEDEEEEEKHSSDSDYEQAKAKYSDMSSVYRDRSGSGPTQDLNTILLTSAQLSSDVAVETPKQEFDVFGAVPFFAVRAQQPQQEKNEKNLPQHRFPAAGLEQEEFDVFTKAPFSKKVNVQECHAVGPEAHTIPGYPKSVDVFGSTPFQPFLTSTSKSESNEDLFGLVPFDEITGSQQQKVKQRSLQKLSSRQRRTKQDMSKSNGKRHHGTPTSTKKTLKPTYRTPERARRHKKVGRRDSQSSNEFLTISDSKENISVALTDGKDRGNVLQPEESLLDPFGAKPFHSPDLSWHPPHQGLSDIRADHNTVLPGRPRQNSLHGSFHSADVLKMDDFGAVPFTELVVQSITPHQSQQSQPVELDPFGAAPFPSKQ
Sequence of Interleukin-1 receptor-associated kinase 3 (Q9Y616 whole entry, the tested form may be a part): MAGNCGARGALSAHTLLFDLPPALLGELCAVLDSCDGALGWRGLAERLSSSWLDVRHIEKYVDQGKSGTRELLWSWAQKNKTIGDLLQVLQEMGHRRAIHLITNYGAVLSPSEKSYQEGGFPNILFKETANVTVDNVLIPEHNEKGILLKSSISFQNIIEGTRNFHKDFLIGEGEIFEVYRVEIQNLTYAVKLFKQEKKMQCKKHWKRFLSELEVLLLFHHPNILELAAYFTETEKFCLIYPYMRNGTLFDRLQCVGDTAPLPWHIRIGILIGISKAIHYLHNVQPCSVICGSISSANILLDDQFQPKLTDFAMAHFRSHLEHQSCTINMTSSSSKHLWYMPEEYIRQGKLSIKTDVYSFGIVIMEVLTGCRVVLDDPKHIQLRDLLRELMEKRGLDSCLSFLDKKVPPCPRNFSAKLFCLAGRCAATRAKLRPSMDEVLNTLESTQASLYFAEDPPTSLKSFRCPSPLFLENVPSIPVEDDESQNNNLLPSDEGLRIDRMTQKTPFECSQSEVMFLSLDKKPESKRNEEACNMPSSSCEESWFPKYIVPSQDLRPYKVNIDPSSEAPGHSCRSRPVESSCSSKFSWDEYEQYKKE

In the case of `COc1cc(Br)cc2[nH]cc(-c3cnc(-c4ccc[nH]4)o3)c12`, the pIC50 is below 5.00 in [1]; below 5.00 in data set [2]; 4.34 in data set [3]; 5.43 in [4]; 5.92 in data set [5]; below 5.00 in data set [7]. For the same compound, in data set [8], the pIC50 is 5.08. Further, the Activity in [6] worked out at 29%.
Consider `COc1cc2c(-c3cnc(-c4ccc[nH]4)o3)c[nH]c2cc1Br`, for which the negative logarithm of the IC50 (pIC50) in data set [1] was 5.15; in [3], 6.00; in data set [4], 5.74; in data set [5], 6.22; in data set [13], below 4.52; in data set [7] it was 5.01. In addition, the pIC50 in data set [8] was 6.30. Further, the Activity in data set [9] is 6%; in [6] it was 7%; in data set [10], 67%; in [14] it was “Non-Toxic”; in data set [16] it was 0%. For the same compound, the pKd in data set [11] is 5.96; in data set [12], 5.77. Also, the survival at 72 h, 1396 µM in data set [15] was 0%. Also, in data set [17], the permeability was found to be 23%. The Fu in data set [18] was 0.3%.
Consider `COc1cc(Br)cc2[nH]cc(-c3cnc(-c4ccc(Br)[nH]4)o3)c12`, for which the pIC50 in data set [1], in data set [2], in data set [3], in [4], in [5] and in data set [7] was below 5.00 throughout. The compound further showed a pIC50 in data set [8] of 5.48.
On to `COc1cc(Br)cc2[nH]cc(-c3oc(-c4ccc[nH]4)nc3I)c12`, for which the pIC50 in data set [1], in [2], in data set [3], in data set [4], in [5] and in [7] was below 5.00 each time. Besides, the pIC50 in data set [8] was below 5.00.
